One assay relates to 4B8^FL cells. As to the kind of experiment: OCR and ECAR (Seahorse) in 4B8 cells complemented with full length MFSD7C. The class given is cell-based, human. To be noted: heme 1 hour. As for the experimental part:
FIGS. 4A-4H show NTD of MFSD7C mediates heme effect on mitochondrial respiration. FIGS. 4A-4C show comparison of basal OCR (FIG. 4A), maximal OCR (FIG. 4B) and ECAR (FIG. 4C) of THP-1, 4B8, and 4B8^FL and 4B8^ΔN cells treated with vehicle or heme for 1 hour (n=18 separate experiments). […] Cells were incubated with FPT for 6 hrs, washed and reseeded in poly-lysine coated glass bottom dishes. After cells attached to the glass, medium containing 40 μM heme was added. Cells in the same field were imaged immediately and again 1 hour later. Relative FPT fluorescent intensities, normalized to THP-1, from three experiments are shown. (n=3 independent experiments). […] THP-1, 4B8, 4B8^FL and 4B8^ΔN cells were treated with vehicle or heme for 1 hour and MMP was measured by using JC-10 Mitochondrial Membrane Potential Assay Kit followed by flow cytometry. […] Shown are representative Western blotting data (FIG. 4G) and quantification of band intensities from n=3 independent experiments (FIG. 4H). P-values were calculated using two-way ANOVA (*p<0.05, **p<0.01, ***p<0.005). […]
Measurements of OCR, ECAR, and MMP. Oxygen consumption rate (OCR) and extracellular acidification rate (ECAR) were measured using XF96e Seahorse Extracellular Flux Analyzer per manufacturer's protocol. […]

Another assay has as its target T1, MFSD7C and SERCA2b (Mus musculus, UniProt Q91X85).
T1 construct: expressed in transfected cells; called 293T
Put plainly: Co-IP of MFSD7C and SERCA2b in transfected 293T cells. It is filed as cell-based, murine. To be noted: 293T cells in the presence of MG132, heme for one hour. As to the method:
FIGS. 5A-5F show MFSD7C and heme regulate thermogenesis through SERCA2b in THP-1 cells. […] 30 hours later, MG132 was added into half of the cells and the other half was not treated. Another 35 hours later, some cells were treated with 40 μM heme for 1 hour before lysis. Cell lysates were immunoprecipitated with anti-FLAG antibody, and eluted, followed by anti-HA immunoprecipitation and elution. Total cell lysate and elute were subjected to Western blotting and probed with anti-SERCA2b or anti-MFSD7C antibodies. Shown are representative data from one of three experiments. […] 24 hrs later, cells were either not treated or treated with 10 μM MG132 for either 6 or 12 hours. The cells were lysed and subjected to FLAG pull-down and blotted with anti-MFSD7C, anti-SERCA2b and anti-ubiquitin antibodies. Shown are representative data from one of three experiments. […] Parental THP-1 cells were either not treated or treated with heme before lysis. Shown are representative data from one of four experiments. […] Shown are representative data from one of two experiments. […] Cells were washed and treated with 40 μM heme for one hour before flow cytometry. Representative FPT histograms from one of three experiments are shown. […] Shown are representative FPT histograms from one of three experiments. […]

For the next assay, the system named is SERCA2b. As to the kind of experiment: SERCA2b protein level by Western blotting, 4B8^FL cells. The class given is cell-based, human. To be noted: 40 μM heme for one hour, reduction by MFSD7C^FL expression. As to the method:
FIGS. 5A-5F show MFSD7C and heme regulate thermogenesis through SERCA2b in THP-1 cells. […] 30 hours later, MG132 was added into half of the cells and the other half was not treated. Another 35 hours later, some cells were treated with 40 μM heme for 1 hour before lysis. Cell lysates were immunoprecipitated with anti-FLAG antibody, and eluted, followed by anti-HA immunoprecipitation and elution. Total cell lysate and elute were subjected to Western blotting and probed with anti-SERCA2b or anti-MFSD7C antibodies. Shown are representative data from one of three experiments. […] 24 hrs later, cells were either not treated or treated with 10 μM MG132 for either 6 or 12 hours. The cells were lysed and subjected to FLAG pull-down and blotted with anti-MFSD7C, anti-SERCA2b and anti-ubiquitin antibodies. Shown are representative data from one of three experiments. […] Parental THP-1 cells were either not treated or treated with heme before lysis. Shown are representative data from one of four experiments. […] Shown are representative data from one of two experiments. […] Cells were washed and treated with 40 μM heme for one hour before flow cytometry. Representative FPT histograms from one of three experiments are shown. […] Shown are representative FPT histograms from one of three experiments.
Endogenous protein extraction. […]
In general terms: Immunoblotting shows a protein as a band on a membrane.

T1 sequence (Q91X85 whole entry): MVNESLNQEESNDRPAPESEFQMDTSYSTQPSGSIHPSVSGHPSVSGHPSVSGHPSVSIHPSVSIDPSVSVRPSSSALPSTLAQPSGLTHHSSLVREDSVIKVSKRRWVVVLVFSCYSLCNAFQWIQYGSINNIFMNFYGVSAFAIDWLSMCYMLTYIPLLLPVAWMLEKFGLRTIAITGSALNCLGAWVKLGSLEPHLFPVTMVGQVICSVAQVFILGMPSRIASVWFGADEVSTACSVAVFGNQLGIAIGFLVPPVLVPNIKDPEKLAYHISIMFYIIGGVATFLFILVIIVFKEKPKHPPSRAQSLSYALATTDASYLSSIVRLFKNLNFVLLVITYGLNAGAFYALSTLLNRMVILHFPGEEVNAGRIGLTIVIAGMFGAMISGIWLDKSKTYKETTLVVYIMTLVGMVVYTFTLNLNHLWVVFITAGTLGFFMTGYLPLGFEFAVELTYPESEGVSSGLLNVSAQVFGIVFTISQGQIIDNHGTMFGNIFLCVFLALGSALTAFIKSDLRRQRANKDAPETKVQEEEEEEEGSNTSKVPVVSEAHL

In the case of `C=CC1=C(C)c2cc3[n-]c(cc4[n-]c(cc5nc(cc1n2)C(C)=C5C=C)c(C)c4CCC(=O)O)c(CCC(=O)O)c3C.[Fe+2]` [heme], in the assay on 4B8^FL cells, the ECAR result was “increased” and the OCR entry is recorded as “increased”. For the same compound, the “co-IP of SERCA2b with MFSD7C” value at MFSD7C and SERCA2b is recorded as “abolished”. Besides, the SERCA2b level result in the assay with SERCA2b is given as “restored”.
